Assay results: patent US11141451B2, “Pharmaceutical composition and health functional food comprising oat extract avenanthramide C or derivative thereof as effective ingredient for prevention or treatment of neurodegenerative disease” (INDUSTRY FOUNDATION OF CHONNAM NATIONAL UNIVERSITY, priority 2016, dated 2021)

Legend:
[1] = test system: long-term potentiation (LTP) in hippocampal slice of Tg2576 induced AD mouse; experiment: LTP induction in hippocampal slice of Tg2576 induced AD mouse; format: cell-based; settings: 7-month-old Tg2576 mouse hippocampal slice, 50 μM compound
Experimental: (§1) The mice of Example 1 were anesthetized and decapitated to excise brains. The extracted brains were kept in a cooled artificial cerebrospinal fluid (aCSF) (124 mM NaCl, 3 mM KCl, 26 mM NaHCO3, 2 mM CaCl2, 1 mM MgSO4, 10 mM Glucose, 1.25 mM NaH2PO4, and 2 mM CaCl2) saturated with 95% oxygen. Hippocampal slices were sampled from the brains, and the hippocampal slice samples were prepared with a thickness of 400 μm. Then, the hippocampal slice samples were recovered in the aCSF (124 mM NaCl, 3 mM KCl, 26 mM NaHCO3, 2 mM CaCl2, 1 mM MgSO4, 10 mM Glucose, 1.25 mM NaH2PO4, and 2 mM CaCl2) saturated with 95% oxygen at a temperature of 22 to 25° C. for 1 hour, and then used in the experiment.
(§2) For LTP induction, the hippocampal slice samples were located in a recording chamber, respectively, and then were observed by analyzing a field excitatory postsynaptic potential (fEPSP) by stimulation of Schaffer-Collateral fiber, while applying stimulations to the samples with 100 Hz every 200 ms, and the experiment was performed for 90 minutes. During the experiment, the aCSF was supplied by flowing with a rate of 2 to 3 ml/min at 30° C., and the obtained experimental results were compared using the ANOVA test known in the art. The obtained results are illustrated in FIGS. 1 to 7.
(§3) In order to examine effects of avenanthramide C according to the present invention on the LTD in a hippocampal slice of a 7-month-old Tg2576 induced AD mouse, an LTP comparison experiment was performed using a hippocampal slice of a gene manipulated mouse in the same method as Experimental Example 1, and the results thereof are illustrated in FIGS. 12A and 12B.
as §3, with “B methyl ester” for “C”, “performed in the same method as Experimental Example 1” for “performed”, “mouse,” for “mouse in the same method as Experimental Example 1,”, “16A” for “12A”, “16B. […]” for “12B.”

[2] = test system: GSK3β; experiment: GSK3β activity by western blotting (GSK3αβ and phosphorylated GSK3β S9) in hippocampal slices treated with amyloid-β; format: cell-based, mouse
Experimental: as §1
Thereafter, RIPA [50 mM Tris-HCl (PH 7.5), 150 mM NaCl, 1% Nonidet P-40, 0.5% sodium deoxycholate, 0.1% SDS, 1 mM phenylmethylsulfonyl fluoride (PMSF), 1 mM DTT, and 2 μg of leupeptin and aprotinin, respectively, were dissolved therein. The crushed cells were centrifuged with 12,000 g at 4° C. for 20 minutes, and the resulting soluble fractions were denatured in a Laemmli buffer and subjected to sodium dodecyl sulfate-polyacrylamide gel electrophoresis (SDS-PAGE). After gel electrophoresis, the separated proteins were transferred to a polyvinylidene difluoride (PVDF) membrane using electroblotting. The membrane was blocked with AMRESCO, RAPIDBLOCK solution (pH 7) and subjected to blotting by using enhanced chemiluminescence (ECL). For blotting, an antibody for GSK3αβ and an antibody for phosphorylated GSK3β (S9) were used. The obtained results are illustrated in FIGS. 8 and 9. GSK3β is an enzyme whose activity is inhibited by the phosphorylation of serine residue 9, and is known as a modulator of a wide range of functions such as energy metabolism, cell proliferation, apoptosis and the like.
In order to examine effects of avenanthramide C methyl ester according to the present invention on activity of GSK3β in a hippocampal slice of a mouse, the same western blotting as Experimental Example 2 was performed, and the results thereof are illustrated in FIG. 15.

[3] = test system: long-term potentiation (LTP) in hippocampal slice of C57BL/6 mouse; experiment: LTP induction (fEPSP, Schaffer-Collateral stimulation) in hippocampal slices treated with amyloid-β; format: cell-based
Experimental: as §1, §2
In order to examine effects of avenanthramide C methyl ester according to the present invention on the LTD in a hippocampal slice of a mouse, an LTP comparison experiment was performed in the same method as Experimental Example 1, and the results thereof are illustrated in FIGS. 14A to 14C.
An LTP comparison experiment was performed by treating the samples with amyloid-β and β-glucan in amounts as illustrated in Table 2 below two hours before the experiment by using the same method as in Experimental Example 1, except that β-glucan was used instead of avenanthramide C according to the present invention. The obtained results are illustrated in FIGS. 18 to 21.

[4] = test system: GSK3β; experiment: GSK3β activity by western blotting in hippocampal slice of Tg2576 induced AD mouse; format: cell-based; settings: 7-month-old Tg2576 mouse hippocampal slice, 50 μM compound, versus untreated
Experimental: as §1
(§4) Thereafter, RIPA [50 mM Tris-HCl (PH 7.5), 150 mM NaCl, 1% Nonidet P-40, 0.5% sodium deoxycholate, 0.1% SDS, 1 mM phenylmethylsulfonyl fluoride (PMSF), 1 mM DTT, and 2 μg of leupeptin and aprotinin, respectively, were dissolved therein. The crushed cells were centrifuged with 12,000 g at 4° C. for 20 minutes, and the resulting soluble fractions were denatured in a Laemmli buffer and subjected to sodium dodecyl sulfate-polyacrylamide gel electrophoresis (SDS-PAGE). After gel electrophoresis, the separated proteins were transferred to a polyvinylidene difluoride (PVDF) membrane using electroblotting. […]

[5] = test system: long-term potentiation (LTP) in hippocampal slice of 5×FAD induced AD mouse; experiment: LTP induction in hippocampal slice of 5×FAD induced AD mouse; format: cell-based
Experimental: as §1
as §2, with “7. […]” for “7.”

[6] = test system: GSK3β; experiment: GSK3β activity by western blotting in hippocampal slice of 5×FAD induced AD mouse; format: cell-based; settings: 4-month-old 5×FAD mouse hippocampal slice, 50 μM compound, versus untreated
Experimental: as §1, §4

[7] = hippocampal slice treated with 500 nM amyloid-β and 50 μM compound together
[8] = hippocampal slice treated with 500 nM amyloid-β and 500 μM compound together

O=C(/C=C/c1ccc(O)cc1)Nc1ccc(O)cc1C(=O)O [avenanthramide A]
LTP induction [1]: induced

COc1cc(/C=C/C(=O)Nc2ccc(O)cc2C(=O)O)ccc1O [avenanthramide B]
LTP induction [1]: slightly induced

COC(=O)c1cc(O)ccc1NC(=O)/C=C/c1ccc(O)c(O)c1 [avenanthramide C methyl ester]
activity of GSK3β [2, 7]: inhibited | LTP induction [3, 7]: induced

O=C(/C=C/c1ccc(O)c(O)c1)Nc1ccc(O)cc1C(=O)O [avenanthramide C]
toxicity in hippocampal slice (GSK3β experiment) ([2]; 500 nM amyloid-β and 500 μM compound together): without toxicity | activity of GSK3β [2, 7]: inhibiting the activity of GSK3β | activity of GSK3β [2, 8]: inhibited | LTP induction ([3]; hippocampal slice treated with 500 nM amyloid-β and 10 μM compound together): not induced | LTP induction [3, 7]: induced | LTP induction [3, 8]: induced | LTP induction ([3]; hippocampal slice treated with only 50 μM compound, no amyloid-β): induced | LTP induction ([3]; hippocampal slice treated with only 500 μM compound, no amyloid-β): induced | toxicity in hippocampal slice (LTP experiment) ([3]; only 500 μM compound, no amyloid-β): not exhibiting toxicity | LTP induction [1]: induced | activity of GSK3β [4]: more inhibited | LTP induction ([5]; 4-month-old 5×FAD mouse hippocampal slice, 50 μM compound): induced | activity of GSK3β [6]: more inhibited

β-glucan [reference compound]
LTP induction ([3]; hippocampal slice treated with 500 nM amyloid-β and 80 μg/ml β-glucan together): not induced | LTP induction ([3]; hippocampal slice treated with only 80 μg/ml β-glucan, no amyloid-β): induced | LTP induction ([5]; induced AD mouse hippocampal slice, 80 μg/ml β-glucan): not induced
